This note sets out measurements from patent US10301295B2, “Herbicidal compounds” (Syngenta Participations AG, priority 2014, dated 2019).

Assay in all cases: Glasshouse assay for herbicidal activity, pre-/post-emergence (percentage phytotoxicity)
Holding throughout (type): in vivo

The test system of one assay is Avena fatua (AVEFA). The settings on record: Avena fatua, Rate 250 g/ha, 100%=total damage, 0%=no damage. The method, then: (§1) Seeds of a variety of monocotyledonous and dicotyledonous test plants are sown in standard soil in pots. The plants are cultivated for one day (for pre-emergence) or for about 12 days (for post-emergence) under controlled conditions in a glasshouse (warm climate species at 24/18° C., cool climate species at 20/16° C., both at day/night; 16 hours light; 65% humidity). The test plants are then grown on, in a glasshouse (greenhouse) under controlled conditions (warm climate species at 24/18° C., cool climate species at 20/16° C., both at day/night; 16 hours light; 65% humidity) and are watered twice daily. 15 days after application of the test herbicide (15DAA) (for post-emergence), and 20 days after application of the test herbicide (20DAA) (for pre-emergence), the test plants are evaluated visually, and an assessed percentage phytotoxicity score is given for each herbicidal application on each plant species (with 100%=total damage to plant; 0%=no damage to plant). The plant species tested are as follows: Alopecurus myosuroides (ALOMY), Avena fatua (AVEFA), Lolium perenne (LOLPE), Echinochloa crus-galli (ECHCG).

In assay [1] the test system is Alopecurus myosuroides (ALOMY). The following applies: Alopecurus myosuroides, Rate 250 g/ha, 100%=total damage, 0%=no damage. As for the experimental part:
as §1

The test system of a further assay is Lolium perenne (LOLPE). The settings on record: Lolium perenne, Rate 250 g/ha, 100%=total damage, 0%=no damage. The method, then:
as §1

Assay [2] relates to Echinochloa crus-galli (ECHCG). The following applies: Echinochloa crus-galli, Rate 250 g/ha, 100%=total damage, 0%=no damage. As for the experimental part:
as §1

Setting [3] is: post-emergence, 360 h, post-emergence, visual assessment 15 DAA, read-out: Post-emergence herbicidal activity (percentage phytotoxicity), AVEFA POST.
[4] abbreviates: pre-emergence, 480 h, pre-emergence, visual assessment 20 DAA, read-out: Pre-emergence herbicidal activity (percentage phytotoxicity), AVEFA PRE.
[5] abbreviates: 360 h, post-emergence, visual assessment 15 DAA, read-out: Post-emergence herbicidal activity (percentage phytotoxicity), ALOMY POST.
Setting [6] is: 480 h, pre-emergence, visual assessment 20 DAA, read-out: Pre-emergence herbicidal activity (percentage phytotoxicity), ALOMY PRE.
Setting [7] is: post-emergence, 360 h, post-emergence, visual assessment 15 DAA, read-out: Post-emergence herbicidal activity (percentage phytotoxicity), LOLPE POST.
Setting [8] is: pre-emergence, 480 h, pre-emergence, visual assessment 20 DAA, read-out: Pre-emergence herbicidal activity (percentage phytotoxicity), LOLPE PRE.
Setting [9] is: post-emergence, 360 h, post-emergence, visual assessment 15 DAA, read-out: Post-emergence herbicidal activity (percentage phytotoxicity), ECHCG POST.
The mark [10] stands for this setting: pre-emergence, 480 h, pre-emergence, visual assessment 20 DAA, read-out: Pre-emergence herbicidal activity (percentage phytotoxicity), ECHCG PRE.

Like-named read-outs stand apart in the source and are kept apart here.

Take `Cc1cc(C)c(C2C(=O)CC(CCNc3ccc(C#N)cn3)C2=O)c(C)c1` (stereo not drawn) [Compound A107]: the pest or weed control at 250 g/ha in the assay with Avena fatua (AVEFA) (setting [3]) turned out to be 100%; in the assay with Avena fatua (AVEFA) (setting [4]), 90%; in assay [1] (setting [5]) it was 100%; in assay [1] (setting [6]) it was 90%; in the assay with Lolium perenne (LOLPE) (setting [7]), 100%; in the assay with Lolium perenne (LOLPE) (setting [8]) it was 100%. Moreover, the pest or weed control at 250 g/ha in assay [2] (setting [9]) and in assay [2] (setting [10]) was 100% throughout.
For the compound `Cc1cc(C)c(C2C(=O)CC(CCNc3ccc([N+](=O)[O-])cn3)C2=O)c(C)c1` (stereo not drawn) [Compound A96], the pest or weed control at 250 g/ha in the assay on Avena fatua (AVEFA) (setting [3]) turned out to be 100%; with Avena fatua (AVEFA) (setting [4]) it was 90%; in assay [1] (setting [5]), 90%; in assay [1] (setting [6]) it was 80%; with Lolium perenne (LOLPE) (setting [7]) it was 100%; in the assay on Lolium perenne (LOLPE) (setting [8]), 100%. For the same compound, the pest or weed control at 250 g/ha in assay [2] (setting [9]) and in assay [2] (setting [10]) was 100% throughout.
Consider `CC#Cc1cc(C)c(C2C(=O)CC(CCNc3ccc(C(F)(F)F)cn3)C2=O)c(C)c1` (stereo not drawn) [Compound A113], for which the pest or weed control at 250 g/ha was 100% with Avena fatua (AVEFA) (setting [3]); 70% in the assay with Avena fatua (AVEFA) (setting [4]); 100% in assay [1] (setting [5]); 90% in assay [1] (setting [6]); 100% with Lolium perenne (LOLPE) (setting [7]); 90% in the assay with Lolium perenne (LOLPE) (setting [8]). Moreover, the pest or weed control at 250 g/ha in assay [2] (setting [9]) was found to be 100%; in assay [2] (setting [10]) it was 90%.
For the compound `CC#Cc1cc(C)c(C2C(=O)CC(CCNc3ccc(C#N)cn3)C2=O)c(C)c1` (stereo not drawn) [Compound A112], the pest or weed control at 250 g/ha worked out at 100% in the assay with Avena fatua (AVEFA) (setting [3]); 90% in the assay with Avena fatua (AVEFA) (setting [4]); 100% in assay [1] (setting [5]); 100% in assay [1] (setting [6]); 100% in the assay with Lolium perenne (LOLPE) (setting [7]); 90% with Lolium perenne (LOLPE) (setting [8]). The pest or weed control at 250 g/ha in assay [2] (setting [9]) and in assay [2] (setting [10]) was 100% in each case.
For `Cc1cc(-c2ncc(F)cn2)cc(C)c1C1C(=O)CC(CCNC(=O)C2=NOC(C)(C)C2)C1=O` (stereo not drawn) [Compound A110], the pest or weed control at 250 g/ha worked out at 100% in the assay on Avena fatua (AVEFA) (setting [3]); 90% in the assay on Avena fatua (AVEFA) (setting [4]); 100% in assay [1] (setting [5]); 100% in assay [1] (setting [6]); 90% with Lolium perenne (LOLPE) (setting [7]); 90% with Lolium perenne (LOLPE) (setting [8]). In addition, the results for the pest or weed control at 250 g/ha in assay [2] (setting [9]) and in assay [2] (setting [10]) were 100% and 90%, respectively.
Take `Cc1cc(-n2cc(Cl)cn2)cc(C)c1C1C(=O)CC(CCNc2ncc(C(F)(F)F)cc2F)C1=O` (stereo not drawn) [Compound A98]: the pest or weed control at 250 g/ha in the assay with Avena fatua (AVEFA) (setting [3]) came out at 100%; in the assay on Avena fatua (AVEFA) (setting [4]), 70%; in assay [1] (setting [5]) it was 90%; in assay [1] (setting [6]), 40%; with Lolium perenne (LOLPE) (setting [7]), 90%; in the assay on Lolium perenne (LOLPE) (setting [8]), 90%. Besides, the pest or weed control at 250 g/ha in assay [2] (setting [9]) is 100%; in assay [2] (setting [10]), 90%.
